These results are taken from PubChem BioAssay (NCI).

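The compound was tested at five concentrations on cells cultured in 96-well plates, with a 48-hour exposure period. TGI marks complete inhibition of growth.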 Where a SMILES comes first, the peptide text is derived from it. [ ]: non-standard residue; d: D form. The star is where a group is joined. NMeV = CN[C@H](C(=O)O)C(C)C; X29 = COc1ccc(CN*)c(OC)c1; Octanoyl = CCCCCCCC(=O)*; dNMeA = CN[C@H](C)C(=O)O

Among the test systems are OVCAR-5 ovarian; 786-0 renal; CAKI-1 renal; OVCAR-8 ovarian; HCT-116 colon; HT29 colon; SK-MEL-28 melanoma; RPMI-8226 leukemia; SK-MEL-2 melanoma; SN12C renal; DU-145 prostate; U251 CNS.
Experiment in all cases: NCI anticancer screen, dose series, 48 h

On to `COc1cc(/C=C/c2nc(NC(=S)Nc3ccccc3)nnc2C)cc(OC)c1OC`, for which the TGI in the assay with OVCAR-5 ovarian is over 100 µM; in the assay with 786-0 renal, over 100 µM; with CAKI-1 renal, over 100 µM; in the assay with OVCAR-8 ovarian, over 100 µM; in the assay with HCT-116 colon it was 86 µM; in the assay with HT29 colon, 48.8 µM. The TGI in the assay on SK-MEL-28 melanoma is over 100 µM; with RPMI-8226 leukemia, 67.8 µM; with SK-MEL-2 melanoma, 38.1 µM; in the assay on SN12C renal, over 100 µM; in the assay with DU-145 prostate, over 100 µM; with U251 CNS it was over 100 µM.
Turning to `COc1ccc(C(=O)/C=C/c2ccc(O)c(O)c2)c(OC)c1`, the TGI in the assay with OVCAR-5 ovarian is 47.2 µM; in the assay with 786-0 renal it was 44.3 µM; with CAKI-1 renal, 34.5 µM; in the assay with OVCAR-8 ovarian, over 86.6 µM; in the assay on HCT-116 colon it was 16.1 µM; in the assay on HT29 colon it was 32 µM. Moreover, the TGI was 48.4 µM with SK-MEL-28 melanoma; 15.8 µM in the assay with RPMI-8226 leukemia; 9.82 µM in the assay with SK-MEL-2 melanoma; 13.2 µM with SN12C renal; 15.7 µM in the assay with DU-145 prostate; 16.6 µM in the assay with U251 CNS.
For the molecule `CC1(/C=C/CCSc2ccccc2)CC(=O)C2CC1C2(C)C` (configuration not stated), the TGI in the assay on OVCAR-5 ovarian is over 100 µM; in the assay on 786-0 renal it was over 54.6 µM; in the assay with CAKI-1 renal it was over 82 µM; with OVCAR-8 ovarian, over 100 µM; in the assay with HCT-116 colon, over 100 µM; in the assay on HT29 colon it was 29.4 µM. The TGI was over 100 µM in the assay on SK-MEL-28 melanoma; 18.8 µM with RPMI-8226 leukemia; over 55.9 µM with SK-MEL-2 melanoma; 45.6 µM in the assay on SN12C renal; over 100 µM in the assay on DU-145 prostate; over 83.7 µM in the assay on U251 CNS.
In the case of `COC(=O)[C@H](CCSC)NC(=O)N[C@H](C)c1ccccc1`, the TGI with OVCAR-5 ovarian, in the assay with 786-0 renal, with CAKI-1 renal, in the assay with OVCAR-8 ovarian, in the assay with HCT-116 colon and in the assay with HT29 colon was over 100 µM each time. Besides, the TGI in the assay on SK-MEL-28 melanoma, in the assay on RPMI-8226 leukemia, with SK-MEL-2 melanoma, in the assay on SN12C renal, in the assay with DU-145 prostate and with U251 CNS was over 100 µM in each case.
On to `CCN1C(=O)c2cc(OC)c(OC)cc2C(=O)C12OC(=O)c1cc3c(cc12)OCO3` (configuration not stated), for which the TGI is over 100 µM with OVCAR-5 ovarian; 53.7 µM with 786-0 renal; over 100 µM with CAKI-1 renal; over 100 µM in the assay on OVCAR-8 ovarian; over 100 µM in the assay with HCT-116 colon; over 100 µM in the assay with HT29 colon. In addition, the TGI was over 100 µM in the assay with SK-MEL-28 melanoma; over 100 µM in the assay with RPMI-8226 leukemia; 49.9 µM in the assay on SK-MEL-2 melanoma; over 100 µM with SN12C renal; 88.4 µM in the assay with DU-145 prostate; over 100 µM in the assay with U251 CNS.
For the molecule `O=C(CCCN1CCC2(CC1)CC(c1ccccc1)OC2=O)c1ccc(F)cc1` (configuration not stated), the TGI was over 100 µM in the assay with OVCAR-5 ovarian; 67.5 µM with 786-0 renal; 82.3 µM with CAKI-1 renal; over 100 µM with OVCAR-8 ovarian; over 100 µM in the assay on HCT-116 colon; 35.2 µM in the assay with HT29 colon. The TGI is over 100 µM in the assay with SK-MEL-28 melanoma; 51.3 µM in the assay with RPMI-8226 leukemia; over 100 µM in the assay on SK-MEL-2 melanoma; over 100 µM with SN12C renal; over 100 µM in the assay on DU-145 prostate; over 100 µM with U251 CNS.
As for `CCCCCCCC(=O)N[C@H](C(=O)N[C@H](C(=O)N(C)[C@H](C(=O)N1CCC[C@H]1C(=O)N(C)[C@H](C)C(=O)NCc1ccc(OC)cc1OC)C(C)C)C(C)C)C(C)C` (Octanoyl-VV[NMeV]P[dNMeA]-X29), the TGI in the assay on OVCAR-5 ovarian is over 100 µM; in the assay on 786-0 renal it was over 100 µM; in the assay with CAKI-1 renal it was over 86.3 µM; in the assay with OVCAR-8 ovarian it was over 100 µM; with HCT-116 colon, over 50.1 µM; in the assay on HT29 colon it was over 85.2 µM. Further, the TGI in the assay on SK-MEL-28 melanoma is over 68.2 µM; in the assay with RPMI-8226 leukemia, over 26.3 µM; in the assay with SK-MEL-2 melanoma it was 42.3 µM; in the assay with SN12C renal, over 100 µM; in the assay on DU-145 prostate, over 100 µM; in the assay with U251 CNS, over 85.5 µM.
Take `Oc1ccc(-c2cc(-c3cc(-c4ccc(O)cc4)no3)on2)cc1`: the TGI in the assay with OVCAR-5 ovarian, in the assay on 786-0 renal, with CAKI-1 renal, in the assay on OVCAR-8 ovarian, in the assay on HCT-116 colon and with HT29 colon was over 100 µM in each case. For the same molecule, the TGI in the assay with SK-MEL-28 melanoma, with RPMI-8226 leukemia, in the assay with SK-MEL-2 melanoma, in the assay on SN12C renal, with DU-145 prostate and with U251 CNS was over 100 µM each time.
For `CS(=O)(=O)OCC1CN(S(C)(=O)=O)c2cc(O)ccc21` (configuration not stated), the TGI stood at 18.3 µM in the assay on OVCAR-5 ovarian; 12 µM with 786-0 renal; 14.2 µM in the assay with CAKI-1 renal; 11.5 µM with OVCAR-8 ovarian; 12.8 µM in the assay on HCT-116 colon; 11.1 µM in the assay on HT29 colon. In addition, the TGI in the assay with SK-MEL-28 melanoma was 11.6 µM; in the assay with RPMI-8226 leukemia, 12.2 µM; in the assay on SK-MEL-2 melanoma, 6.88 µM; with SN12C renal, 13.5 µM; in the assay with DU-145 prostate, 10 µM; in the assay with U251 CNS it was 7.26 µM.
Consider `CCCCn1c(N)c(-c2nc3ccccc3o2)sc1=S`, for which the TGI in the assay on OVCAR-5 ovarian is 53.6 µM; in the assay on 786-0 renal, 33 µM; with CAKI-1 renal, 41 µM; in the assay with OVCAR-8 ovarian, 37.7 µM; in the assay with HCT-116 colon, 24.6 µM; in the assay with HT29 colon it was 78 µM. Besides, the TGI in the assay on SK-MEL-28 melanoma is 52.7 µM; in the assay on RPMI-8226 leukemia, 67.4 µM; in the assay with SK-MEL-2 melanoma, 37.7 µM; in the assay with SN12C renal it was 54.3 µM; in the assay on DU-145 prostate, 35.9 µM; in the assay with U251 CNS it was 33 µM.
On to `Cc1cc(S(=O)(=O)Nc2nc3ccccc3nc2-c2cccc([N+](=O)[O-])c2)c(S)cc1Cl`, for which the TGI in the assay on OVCAR-5 ovarian was found to be 88.4 µM; in the assay on 786-0 renal it was 45.6 µM; with CAKI-1 renal, 39.4 µM; with OVCAR-8 ovarian, 80.9 µM; in the assay with HCT-116 colon it was 35.2 µM; in the assay on HT29 colon it was 34.2 µM. Moreover, the TGI is 32.9 µM with SK-MEL-28 melanoma; 64.7 µM in the assay with RPMI-8226 leukemia; 42.2 µM with SK-MEL-2 melanoma; 78.5 µM in the assay on SN12C renal; 36.8 µM with DU-145 prostate; 38.6 µM in the assay on U251 CNS.
